Test results from the RepoRT retention time repository (doi:10.1016/j.chroma.2022.462867).

Legend:
Conditions in all cases: stereoisomer not certain
[1] = RP, Phenomenex Kinetex EVO C18, 150 × 3 mm, 2.6 µm, 40 °C, 0.35 mL/min, estimated dead time 1.9 min; A: water + 5 mM ammonium formate, pH 5; B: acetonitrile; gradient (min/%B) 0/5 20/100 25/100 30/5
[2] = RP, Phenomenex Kinetex PS C18, 150 × 3 mm, 2.6 µm, 40 °C, 0.35 mL/min, estimated dead time 1.9 min; A: water + 5 mM ammonium acetate, pH 5; B: methanol; gradient (min/%B) 0/5 20/100 25/100 30/5
[3] = RP, Phenomenex Kinetex EVO C18, 150 × 3 mm, 2.6 µm, 40 °C, 0.35 mL/min, estimated dead time 1.9 min; A: water + 0.1% formic acid, pH 3; B: methanol; gradient (min/%B) 0/5 20/100 25/100 30/5
[4] = HILIC, Phenomenex Kinetex HILIC, 150 × 3 mm, 2.6 µm, 40 °C, 0.35 mL/min, estimated dead time 1.9 min; A: water + 0.1% formic acid, pH 3; B: methanol; gradient (min/%B) 0/95 20/0 25/0 30/95

| SMILES | LC retention time [1] [min] | LC retention time [2] [min] | LC retention time [3] [min] | LC retention time [4] [min] |
| --- | --- | --- | --- | --- |
| O=[N+]([O-])c1ccc2ccc3cccc4ccc1c2c34 [1-Nitropyrene] | 14.8 | 18.4 |  |  |
| Oc1ccc2ccc3cccc4ccc1c2c34 [1-hydroxypyrene] | 13.1 | 16.7 |  |  |
| c1ccc2n[nH]nc2c1 [1H-Benzotriazole] | 5 | 8.12 | 7.35 |  |
| CSc1nc2ccccc2s1 [2-(Methylthio)benzothiazole] | 11.6 | 15 | 15.2 |  |
| O=C(O)c1ccc2ccccc2c1 [2-naphthoic acid] |  | 13 | 14.1 |  |
| Nc1ccc(Cl)cc1 [4-Chloroaniline] | 8.88 | 10.3 | 5.28 |  |
| Cc1ccc2n[nH]nc2c1 [5-Methyl-1H-benzotriazole] | 6.42 | 10.4 | 9.78 |  |
| CC12CCC3c4ccc(O)cc4CCC3C1CCC2O (stereo not drawn) [17beta estradiol] | 11.2 | 15.8 | 15.2 |  |
| CC(C)C1=CC2=CCC3C(C)(C(=O)O)CCCC3(C)C2CC1 (stereo not given) [Abietic acid] | 16.9 | 20.3 |  |  |
| CCc1cccc(CC)c1N(COC)C(=O)CCl [Alachlor] | 13 | 16.4 | 16.2 |  |
| CCN=C1NC(NC(C)C)=NC(Cl)N1 (stereo not given) [Atrazine] |  | 13.9 | 13.6 |  |
| c1ccc2scnc2c1 [Benzothiazole] | 7.96 | 11.5 | 11.2 |  |
| CC(O)(CS(=O)(=O)c1ccc(F)cc1)C(=O)Nc1ccc(C#N)c(C(F)(F)F)c1 (stereo not given) [Bicalutamide] | 12.2 | 14.6 | 14.4 |  |
| Cn1c(=O)c2c(ncn2C)n(C)c1=O [Caffeine] | 3.88 | 7.93 | 6.69 |  |
| NC(=O)N1c2ccccc2C=Cc2ccccc21 [Carbamazepine] |  | 13.2 | 12.6 |  |
| c1ccc2c(c1)[nH]c1ccccc12 [Carbazole] | 12.5 | 15.1 | 15.5 |  |
| Nc1cnn(-c2ccccc2)c(=O)c1Cl [Chloridazon] | 6.18 | 9.65 | 8.88 |  |
| CCOP(=S)(OCC)Oc1nc(Cl)c(Cl)cc1Cl [Chlorpyrifos] | 15.9 | 18.8 |  |  |
| NS(=O)(=O)c1cc(C2(O)NC(=O)c3ccccc32)ccc1Cl (stereo not given) [Chlorthalidone] | 6.87 | 9.81 | 9.19 |  |
| CC12CCC(=O)C=C1CCC1C2C(O)CC2(C)C(C(=O)CO)CCC12 (stereo not given) [Corticosterone] | 9.72 | 15 | 14 |  |
| CN1CC(=O)NC1=N [Creatinine] |  |  |  | 4 |

| SMILES | LC retention time [1] [min] | LC retention time [2] [min] | LC retention time [3] [min] | LC retention time [4] [min] |
| --- | --- | --- | --- | --- |
| CCN=C1NC(Cl)NC(NC(C)(C)C#N)N1 (stereo not given) [Cyanazine] | 8.86 | 12 | 11.4 |  |
| CN(C)C(=O)Nc1ccc(Cl)c(Cl)c1 [Diuron] | 10.6 | 14.1 | 13.9 |  |
| O=C1Nc2ccc(Cl)cc2C(C#CC2CC2)(C(F)(F)F)O1 (stereo not given) [Efavirenz] | 13.6 | 16.7 | 16.8 |  |
| CC12CCC3c4ccc(O)cc4CCC3C1CCC2=O (stereo not given) [Estrone] | 11.7 | 15.7 | 15.1 |  |
| CCCSP(=O)(OCC)SCCC [Ethoprop] |  | 16.5 |  |  |
| N#Cc1nn(-c2c(Cl)cc(C(F)(F)F)cc2Cl)c(N)c1S(=O)C(F)(F)F (stereo not given) [Fipronil] |  | 16.6 | 16.7 |  |
| COc1ccc(Cl)cc1C(=O)NCCc1ccc(S(=O)(=O)NC(=O)NC2CCCCC2)cc1 [Glibenclamide] | 12.5 | 16 | 16.2 |  |
| CCC1=C(C)CN(C(=O)NCCc2ccc(S(=O)(=O)NC(=O)NC3CCC(C)CC3)cc2)C1=O (stereo not given) [Glimepiride] | 12.8 | 16.5 |  |  |
| NS(=O)(=O)c1cc2c(cc1Cl)NCNS2(=O)=O [Hydrochlorothiazide] | 9.77 | 13.8 | 4.62 |  |
| CC(=O)OCC(=O)C1(O)CCC2C3CCC4=CC(=O)CCC4(C)C3C(O)CC21C (stereo not given) [Hydrocortisonacetate] | 10.6 | 15 | 14.3 |  |
| C1=Cc2ccccc2Nc2ccccc21 [Iminostilbene] | 13 | 15.5 | 15.7 |  |
| CCCCC1=NC2(CCCC2)C(=O)N1Cc1ccc(-c2ccccc2-c2nn[nH]n2)cc1 [Irbesartan] | 9.45 | 14.6 | 14.5 |  |
| CSC1N=C(NC2CC2)NC(NC(C)(C)C)N1 (stereo not given) [Irgarol] |  | 16.6 |  |  |
| Nc1nc(N)nc(N)n1 [Melamine] |  | 2.33 |  |  |
| Cc1cccc(C)c1N(Cn1cccn1)C(=O)CCl [Metazachlor] | 10.6 | 14.1 | 13.7 |  |
| CCc1cccc(C)c1N(C(=O)CCl)C(C)COC (stereo not given) [Metolachlor] | 12.9 | 16.6 | 16.3 |  |
| COC(=O)C1CCCCC1S(=O)(=O)NC(=O)NC1=NC(OC)NC(C)N1 (stereo not given) [Metsulfuron-methyl] | 5.28 | 9.47 | 12.2 |  |
| CNC(=O)C=C(C)OP(=O)(OC)OC [Monocrotophos] | 4.17 | 7.86 | 6.95 |  |
| CN(C)C(=O)Nc1ccc(Cl)cc1 [Monuron] | 8.56 | 11.9 | 11.5 |  |
| NC(=O)c1cccnc1 [Nicotinamide] |  | 3.85 |  |  |
| C#CC1(O)CCC2C3CCC4=CC(=O)CCC4C3CCC21C (stereo not given) [Norethindrone] | 11.2 | 15.9 | 14.9 |  |

| SMILES | LC retention time [1] [min] | LC retention time [2] [min] | LC retention time [3] [min] | LC retention time [4] [min] |
| --- | --- | --- | --- | --- |
| CCOP(=S)(OCC)Oc1ccc([N+](=O)[O-])cc1 [Parathion] | 14.2 | 16.7 | 16.8 |  |
| Cc1cc(=O)n(-c2ccccc2)n1C [Phenazone (Antipyrine)] |  | 9.04 | 7.82 |  |
| CC(=O)C1CCC2C3CCC4=CC(=O)CCC4(C)C3CCC12C (stereo not given) [Progesterone] | 13.3 | 17.8 | 16.9 |  |
| CSC1N=C(NC(C)C)NC(NC(C)C)=N1 [Prometryn] | 12.5 | 16.2 |  |  |
| CCC(=O)Nc1ccc(Cl)c(Cl)c1 [Propanil] | 11.8 | 15 | 14.9 |  |
| CCCc1cc(=O)[nH]c(=S)[nH]1 [Propylthiouracil] | 4.45 | 7.7 | 6.85 |  |
| c1ccc2nccnc2c1 [Quinoxaline] | 5.73 | 9.84 | 8.84 |  |
| CCN=C1NC(=NCC)NC(Cl)N1 (stereo not given) [Simazine] | 8.6 | 12.4 | 11.9 |  |
| CCC(C)(C)C(=O)OC1CC(C)C=C2C=CC(C)C(CCC3CC(O)CC(=O)O3)C21 (stereo not given) [Simvastatin] | 14.9 | 19.1 |  |  |
| Oc1ccc2ccccc2c1N=Nc1ccccc1 [Sudan I] | 15.2 | 19.2 | 19.4 |  |
| Cc1cc(C)nc(NS(=O)(=O)c2ccc(N)cc2)n1 [Sulfamethazine] | 5.18 | 7.93 | 6.77 |  |
| Nc1ccc(S(=O)(=O)Nc2ccccn2)cc1 [Sulfapyridine] | 4.4 | 6.53 | 5.39 |  |
| Cn1c(=O)c2[nH]cnc2n(C)c1=O [Theophylline] | 3.27 | 6.79 | 5.29 |  |
| CC(C)COP(=O)(OCC(C)C)OCC(C)C [Tri-isobutyl phosphate] | 14 | 18 | 17.8 |  |
| CCOP(=O)(OCC)OCC [Triethyl phosphate] | 6.52 | 11.2 | 10.5 |  |
| CCCN(CCC)c1c([N+](=O)[O-])cc(C(F)(F)F)cc1[N+](=O)[O-] [Trifluralin] | 16.5 | 19 | 16.9 |  |
| O=P(Oc1ccccc1)(Oc1ccccc1)Oc1ccccc1 [Triphenylphosphate] | 13.8 | 17.3 | 17.2 |  |
| CCCCC(=O)N(Cc1ccc(-c2ccccc2-c2nn[nH]n2)cc1)C(C(=O)O)C(C)C (stereo not given) [Valsartan] | 8.73 | 13.5 |  |  |
| OC(Cn1cncn1)(Cn1cncn1)c1ccc(F)cc1F [fluconazole] | 5.92 | 9.64 | 8.85 |  |
